Results from US20180172678A1, “Dynamic Light Scattering Nanoplatform For High-Throughput Drug Screening” (Agency for Science, Technology and Research, priority 2016, published 2018).
*1 amine or outer side, *2 acyl side, *3 side chain or, on linkers, in order; H or OH if unused. Where a SMILES comes first, the peptide text is derived from it. Bridges are numbered along the chain shown (N, C = ends). Roman numbers before positions name the chains, in order. [ ]: non-standard residue; d: D form. Actinocin(9to1) = Cc1c2oc3c(C)ccc(C(=O)[*:1])c3nc-2c(C(=O)[*:2])c(N)c1=O; NMeV = CN[C@H](C(=O)O)C(C)C; Sar = CNCC(=O)O

How the values were obtained:
wtp53 in HCT116 cells = assay: DLS detection with PUMA-AuNP nano-dumbbell probes of wtp53 expression level in drug treated HCT116 cell lysates; format: cell-based; details: HCT116 cell lysate after Mdm2 inhibitor treatment, mixed with PUMA-AuNP probes
From the text: Referring to FIG. 8, detection of wtp53 expression level in drug treated HCT116 cell lysates in accordance with the present embodiment is depicted in a bar graph 800. Besides the H1299 Ecdysone-Inducible cell lines, the effect of Mdm2 inhibitors such as nutlin 810, pm2 812, and vip82 814 on HCT116 cells was investigated. These inhibitors could inhibit Mdm2 targeted wtp53 degradation so that the wtp53 protein level in the HCT116 cell lysate will increase with the concentration of the drug applied. […] However, the extent of size increase is not as high as what was observed upon anticancer drug treatment presented. One possible explanation is that PUMA-AuNP nano-dumbbell probes are sensitive to detect activated wtp53 with enhanced binding to RE, whereas the over-expression of wtp53 may not enhance DNA binding.

wildtype p53 = assay: DLS detection with PUMA-AuNP nano-dumbbell probes of wtp53-RE binding in anticancer drug treated PonA induced H1299 cell lysates; format: cell-based; details: drug-treated PonA induced p53 H1299 cell lysate, versus untreated lysate
From the text: To investigate the applicability of the assay in accordance with the present embodiment to cell lysates, the H1299 Ecdysone-Inducible (EI) system for controllable and constitutive expression of p53 in H1299 cells induced by ponasterone A (PonA) was used. Referring to FIG. 7, bar graphs 700, 750 depict cell lysate analysis statistics in accordance with the present embodiment. The bar graph 700 plots size along the y-axis 704 and depicts wildtype p53 cell lysate 710 and three mutant p53 cell lysates: G245S 712, R273H 714 and R175H 716. The p53 null cell lysate (EI) 718, which serves as a negative control, gives negligible size shift from that of the PUMA-AuNP nano-dumbbell probes 720. Remarkably, clear distinctions between cell lysates with wtp53 710 and the DNA contact mutant retaining native structure (R273H) 714, the weakly stabilized mutant (G245S) 712 and the globally denatured mutant (R175H) 716 can be observed in the bar graph 700. Thus, it can be seen from the analytical results in the graph 700 that the bioassay in accordance with the present embodiment is not only sensitive and selective in the context of purified proteins but also applicable to highly complex biological samples.
Referring to FIG. 7B, the bar graph 750 plots size along the y-axis 754 and depicts detection of wildtype p53 in PonA induced p53 cell lysates 760 versus a […] cell lysate (EI) 762 (used together with the PUMA-AuNP nano-dumbbell probes 763 as a negative control), and an anticancer drug including ActD-treated 764, Dox-treated 766, and Etoposide-treated cell lysate 768.

mutant p53 (R273H) = target: T1, mutant p53 (R273H) (Homo sapiens, UniProt P04637, R273H); assay: Mutant p53 reactivation drug screening in PonA induced H1299 cells, DLS with PUMA-AuNP nano-dumbbell probes; format: cell-based
T1 construct: expressed in transfected cells; host or cells: PonA induced H1299 cells
Description: (§1) The ability to clearly distinguish wildtype p53 from mutant p53 in cell lysates provides the potential of the assay in accordance with the present embodiment for screening drugs that can effectively reactivate mutant p53 directly in cells and recovered the biological samples from cell lysates for detection. FIG. 9 depicts a schematic diagram 900 showing the process of mutant reactivation drug screening. Incubation of drug with live cancer cells expressing mutant p53 for reactivation is performed 910 (Step 1). The drug treated cells are then chemically lysed 920 (Step 2). The resultant cell lysates are next subjected 930 to incubation with p53-RE functionalized AuNP nano-dumbbell probes (Step 3). The obtained DLS readout allow evaluation of whether the drug applied has successfully reactivated mutant p53 to restore its binding affinity to RE. Failure in p53 reactivation will give rise to no change in the position of the DLS signal in accordance with the present embodiment.
(§2) Referring back to Step 1, drugs to be tested are first incubated 912 with live cancer cells expressing mutp53 proteins. Drugs are then uptaken 914 by the cells and interact with the mutp53 proteins. The drug treated cancer cells are subsequently lysed at Step 2 (920) to obtain crude cell lysates. These cell lysates are incubated with RE-AuNP probes and DLS is finally employed to evaluate the efficiency of mutp53 reactivation 932. If the reactivation is successful 934, the reactivated p53 protein will have a restored binding toward the RE, thus leading to increase in the diameter of the p53 RE-AuNP probes as measured 936 by DLS. In contrast, failure in reactivation 938 will not restore the binding of mutp53 protein to the RE sequence on the nano-dumbbell probes, thus no change in DLS signal is measured 940. Thus, the bioassay in accordance with the present embodiment is able to evaluate the extent of mutant reactivation by comparing the DLS signal obtained with the wtp53 binding to RE. The effective concentration of drugs for reactivation can also be determined by performing a series of concentration-dependent experiments during cell reactivation
However, the NSC drug has no effect at either low concentrations 1068 or high concentrations 1070 due to its specificity only to R175H mutant.

mutant p53 (R175H) = target: T2, mutant p53 (R175H) (Homo sapiens, UniProt P04637, R175H); assay: as above; format: cell-based
T2 construct: expressed in transfected cells; host or cells: PonA induced H1299 cells
Description: as §1, §2
The bar graphs 1000, 1050 plot particle size along the y-axis 1004, 1054 and depict screening of mutant reactivation drugs.

p53 = p53 (Homo sapiens, UniProt P04637); assay: Dissociation constant (KD) of p53 for DNA promoter sequences (Table 1); format: binding; details: concentration of p53 for 50% of the DNA to be bound; free dsDNA sequence
From the text: As aforestated, the p53 protein is a transcription factor which will bind specifically to DNA that contains RE sequences. In nature, wildtype p53 protein will bind to many promoter sequences and subsequently activate a wide range of genes for DNA repair, cell cycle arrest, apoptosis and its own degradation. As shown hereinabove, the bioassay in accordance with the present embodiment can be used for DNA selectivity study by conjugating different RE sequences to the AuNPs. However, it would be technically tedious to carry out conjugation for each DNA sequence and then screen for the binding affinity of a large number of promoter sequences. Therefore, a convenient competition assay which requires only one set of p53 RE-linked AuNPs has been designed in accordance with the present embodiment to evaluate the binding affinity of p53 protein to various promoter sequences listed in Table 1. This competition assay further allows the identification of the specific downstream pathway that is triggered upon p53 activation or reactivation, providing crucial information on the drug validation and outcome of the drug action.
The dissociation constant (KD) is defined as the concentration of p53 for 50% of the DNA to be bound. The lower the KD value, the stronger the binding affinity between wtp53 and the tested free DNA sequence. Thus, a smaller change in the size of the complex bound probes is expected due to the competitive binding of wtp53 between the free DNAs and conjugated RE sequences on AuNPs. […] Application of this assay to the activated or reactivated p53 proteins enables determination of which promoter sequence binds strongly and consequently identifies its downstream targets (apoptosis, cell cycle arrest or DNA repair).

[1] = high concentrations (++): COTI-2 1 μM, Prima-1^met 20 μM, NSC 3 μM
[2] = low concentrations (+): NSC 0.3 μM

**Q.** For COc1ccc(C2=NC(c3ccc(Cl)cc3)C(c3ccc(Cl)cc3)N2C(=O)N2CCNC(=O)C2)c(OC(C)C)c1 (stereo not shown) [nutlin], which “wtp53 level in cell lysate detected by DLS size increase” value (wtp53 in HCT116 cells) is on record?
**A.** increased wtp53 level

**Q.** COc1cccc2c1C(=O)c1c(O)c3c(c(O)c1C2=O)C[C@@](O)(C(=O)CO)C[C@@H]3O[C@H]1C[C@H](N)[C@H](O)[C@H](C)O1 [Dox, doxorubicin] was tested. Which “activation of wtp53 binding to the RE (DLS particle diameter of PUMA-AuNP probes)” value (from here on “activation of wtp53 binding to the RE”) (wildtype p53) did it give?
**A.** larger diameter

**Q.** How did the “reactivation of mutant p53 (R273H) to bind with PUMA-AuNP probes” value (from here on “reactivation of mutant p53 (R273H)”) (mutant p53 (R273H); [1]) turn out when COCC1(CO)C(=O)C2CCN1CC2 (stereo not shown) [Prima-1^met] was run?
**A.** successful reactivation

**Q.** What about the “reactivation of mutant p53 (R273H)” value (mutant p53 (R273H); [2]) of the same molecule?
**A.** not at low concentrations

**Q.** What about the “reactivation of mutant p53 (R175H) to bind with PUMA-AuNP probes” value (from here on “reactivation of mutant p53 (R175H)”) (mutant p53 (R175H); [1]) of the same molecule?
**A.** successful reactivation

**Q.** What about the “reactivation of mutant p53 (R175H)” value (mutant p53 (R175H); [2]) of the same molecule?
**A.** not at low concentrations

**Q.** How did the “activation of wtp53 binding to the RE” value (wildtype p53) turn out when COc1cc([C@@H]2c3cc4c(cc3[C@@H](O[C@@H]3O[C@@H]5CO[C@@H](C)O[C@H]5[C@H](O)[C@H]3O)[C@H]3COC(=O)[C@H]23)OCO4)cc(OC)c1O [Etoposide, etoposide] was run?
**A.** larger diameter

**Q.** “GADD45: p53 promoter dsDNA sequence, gene function DNA repair (sense ATCATGAACATGTCTAAGCATGCTGAGCTC; antisense GAGCTCAGCATGCTTAGACATGTTCATGAT; DNA, backbone not given here)” was tested. Which Kd (p53) did it give?
**A.** 7.7 ± 1.2 nM

**Q.** With CC(=NNC(=S)N1CC2CCC(CC2)C1)c1ccccn1 [NSC] as the molecule, how does the “reactivation of mutant p53 (R273H)” value (mutant p53 (R273H); [1]) read?
**A.** no effect

**Q.** What about the “reactivation of mutant p53 (R273H)” value (mutant p53 (R273H); [2]) of the same molecule?
**A.** no effect

**Q.** What about the “reactivation of mutant p53 (R175H)” value (mutant p53 (R175H); [1]) of the same molecule?
**A.** shows effect

**Q.** What about the “reactivation of mutant p53 (R175H)” value (mutant p53 (R175H); [2]) of the same molecule?
**A.** shows effect

**Q.** For S=C(N/N=C1\CCCc2cccnc21)N1CCN(c2ccccn2)CC1 [COTI-2], which “reactivation of mutant p53 (R273H)” value (mutant p53 (R273H); [1]) is on record?
**A.** successful reactivation

**Q.** And the “reactivation of mutant p53 (R273H)” value (mutant p53 (R273H); [2])?
**A.** not at low concentrations

**Q.** And the “reactivation of mutant p53 (R175H)” value (mutant p53 (R175H); [1])?
**A.** successful reactivation

**Q.** What about the “reactivation of mutant p53 (R175H)” value (mutant p53 (R175H); [2]) of the same molecule?
**A.** not at low concentrations

**Q.** How did the “activation of wtp53 binding to the RE” value (wildtype p53) turn out when Cc1c2oc3c(C)ccc(C(=O)N[C@@H]4C(=O)N[C@H](C(C)C)C(=O)N5CCC[C@H]5C(=O)N(C)CC(=O)N(C)[C@@H](C(C)C)C(=O)O[C@@H]4C)c3nc-2c(C(=O)N[C@@H]2C(=O)N[C@H](C(C)C)C(=O)N3CCC[C@H]3C(=O)N(C)CC(=O)N(C)[C@@H](C(C)C)C(=O)O[C@@H]2C)c(N)c1=O [ActD, actinomycin D] (I: T[dV]P[Sar][NMeV] / II: T[dV]P[Sar][NMeV]; ester I:1-I:C, II:1-II:C; linker I:N-II:N via Actinocin(9to1)) was run?
**A.** larger diameter

**Q.** With “Bax a: p53 promoter dsDNA sequence, gene function apoptosis (sense TCATTCACAAGTTAGAGACAAGCCTAGCTC; antisense GAGCTAGGCTTGTCTCTAACTTGTGAATGA; DNA, backbone not given here)” as the molecule, how does the Kd (p53) read?
**A.** 73 ± 33 nM

B1: ConA: Artificial consensus p53-binding dsDNA sequence; positive control (nucleic acid)
sense: GTTAGAGGGGCATGTCCGGGCATGTCCGGGCAGA
antisense: CAATCTCCCCGTACAGGCCCGTACAGGCCCGTCT
modifications: chemistry not given here; one strand is listed 3' to 5'
notes: positive control
**Q.** How did the Kd (p53) turn out when B1 was run?
**A.** 3 nM
